Test results from patent US20230278972A1, “SUBSTITUTED HALOALKYL SULFONANILIDE HERBICIDES” (FMC Corporation, priority 2020, published 2023).

Columns and labels:
Assay type in all cases: in vivo
[1] = tested on: Oat, Wild (wild oat, Avena fatua); assay: Test A1 preemergence, Oat, Wild
How it was run: (§1)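 Seeds were first planted into a blend of loam soil and sand and given a preemergence directed soil spray. In parallel, pots of the same soil were sown for postemergence application once plants reached 2 to 10 cm and the one- to two-leaf stage. Both used surfactant-containing non-phytotoxic solvent formulations.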

[2] = tested on: Oat, Wild (wild oat, Avena fatua); assay: Test A1 postemergence, Oat, Wild; conditions: for Plant response rating, Oat, Wild: Postemergence; for Oat, Wild plant response rating: postemergence
How it was run: as §1

[3] = tested on: barnyardgrass (Echinochloa crus-galli); assay: Test B1 flooded paddy test, barnyardgrass; conditions: 250 g ai/ha, Flood, applied to paddy water, 2-leaf stage, visually evaluated after 10 to 14 days
From the text: A dash (-) response means no test result.

[4] = tested on: corn (Zea mays); assay: Test A1 postemergence, corn; conditions: for Plant response rating, Corn: Postemergence; for Corn plant response rating: postemergence
How it was run: as §1

[5] = tested on: Foxtail, Giant (giant foxtail, Setaria faberi); assay: Test A1 preemergence, Foxtail, Giant
How it was run: as §1

[6] = 125 g ai/ha, 0 to 100 scale, 0 no effect, 100 complete control
[7] = 31 g ai/ha, 0 to 100 scale (0 no effect, 100 complete control), 10 days
[8] = 31 g ai/ha, 0 to 100 scale (0 no effect, 100 complete control)
[9] = 125 g ai/ha, 0 to 100 scale (0 no effect, 100 complete control), 10 days
[10] = 500 g ai/ha, 0 to 100 scale (0 no effect, 100 complete control)
[11] = 125 g ai/ha, 0 to 100 scale (0 no effect, 100 complete control)

| SMILES | Plant response rating, Oat, Wild [1, 6] | Plant response rating, Oat, Wild [2, 7] | Plant response rating, Oat, Wild ([2]; 125 g ai/ha, 0 to 100 scale) | Plant response rating, Barnyardgrass (0 to 100 scale, 0 is no effect, 100 is complete control) [3] | Plant response rating, Corn [4, 7] | Plant response rating, Corn ([4]; 125 g ai/ha, 0 to 100 scale) | Plant response rating, Foxtail, Giant [5, 8] | Plant response rating, Foxtail, Giant [5, 6] | Plant response rating, Oat, Wild [1, 8] | Oat, Wild plant response rating [2, 8] | Plant response rating, Oat, Wild [2, 9] | Corn plant response rating [4, 8] | Plant response rating, Corn [4, 9] | Plant response rating, Oat, Wild [1, 10] | Plant response rating, Oat, Wild ([2]; 500 g ai/ha, 0 to 100 scale) | Plant response rating, Corn ([4]; 500 g ai/ha, 0 to 100 scale) | Plant response rating, Foxtail, Giant [5, 10] | Plant response rating, Oat, Wild [1, 11] | Plant response rating, Foxtail, Giant [5, 11] |
| --- | --- | --- | --- | --- | --- | --- | --- | --- | --- | --- | --- | --- | --- | --- | --- | --- | --- | --- | --- |
| Cc1c(NS(=O)(=O)C(F)(F)F)cc(C(=O)N2CCSCC2)c(C)c1C [Compound 283] | 0 | 0 | 0 | 15 | 0 | 0 | 10 | 90 | – | – | – | – | – | – | – | – | – | – | – |
| Cc1cc(C)c(N2CCC3(CCC(C(F)(F)F)CC3)C2=O)cc1NS(=O)(=O)C(F)(F)F (centres unmarked) [Compound 400] | 90 | – | – | 20 | – | – | 20 | 90 | 50 | 0 | 0 | 0 | 0 | – | – | – | – | – | – |
| Cc1c(C2=NOC3(CCCC3)C2)cc(N(COC(=O)C(C)(C)C)S(=O)(=O)C(F)(F)F)c(C)c1C [Compound 382] | 40 | – | – | 90 | – | – | 0 | 30 | 20 | 0 | 0 | 0 | 0 | – | – | – | – | – | – |
| Cc1cc(C)c(N2CCC3(CCC(C)CC3)C2=O)cc1NS(=O)(=O)C(F)(F)F (centres unmarked) [Compound 402] | 70 | – | – | 0 | – | – | 90 | 100 | 50 | 10 | 10 | 0 | 0 | – | – | – | – | – | – |
| Cc1cc(C)c(N(COC(=O)C(C)(C)C)S(=O)(=O)C(F)(F)F)cc1N1CCC2(CCC(F)(F)CC2)C1=O [Compound 397] | 20 | – | – | 90 | – | – | – | 100 | – | – | 10 | – | 10 | 90 | 0 | 10 | 100 | – | – |
| Cc1cc(C)c(C2=NOC(C(C)C)C2)cc1NS(=O)(=O)C(F)(F)F (centres unmarked) [Compound 381] | 80 | – | – | 70 | – | – | 20 | 100 | 50 | 0 | 20 | 0 | 20 | – | – | – | – | – | – |
| CCOc1cccc2c1C(=O)N(c1cc(N(COC(=O)C(C)(C)C)S(=O)(=O)Cl)c(C)cc1C)C2 [Compound 414] | – | – | – | 0 | – | – | 0 | – | – | 0 | 0 | 0 | 0 | – | – | – | – | 30 | 0 |
| COc1cccc2c1C(=O)N(c1cc(N(COC(=O)C(C)(C)C)S(=O)(=O)Cl)c(C)cc1C)C2 [Compound 413] | – | – | – | 40 | – | – | 0 | – | – | 0 | 0 | 30 | 30 | – | – | – | – | 0 | 10 |
| Cc1ccc(C2=NOC3CCCC23)cc1NS(=O)(=O)C(F)(F)F (centres unmarked) [Compound 377] | 0 | – | 0 | 0 | 0 | 0 | 0 | 0 | 0 | 0 | – | – | – | – | – | – | – | – | – |
| C#CCN(C)C(=O)c1cc(NS(=O)(=O)C(F)(F)F)c(C)c(C)c1C [Compound 368] | 20 | – | 10 | 70 | 40 | 90 | 90 | 100 | 10 | 0 | – | – | – | – | – | – | – | – | – |
| CCOC(=O)N(c1cc(C(=O)N2CCSCC2)c(C)c(C)c1C)S(=O)(=O)C(F)(F)F [Compound 286] | 0 | 0 | 0 | 15 | 0 | 0 | 80 | 100 | 0 | – | – | – | – | – | – | – | – | – | – |
| Cc1cc(Cl)c(NS(=O)(=O)C(F)(F)F)cc1N1CC2(CCCCC2)OC1=O [Compound 394] | 90 | – | – | 0 | – | – | 90 | 100 | 20 | 0 | 0 | 0 | 40 | – | – | – | – | – | – |
| Cc1cc(C)c(N(COC(=O)C(C)(C)C)S(=O)(=O)C(F)(F)F)cc1N1CCC2(CCC(C)CC2)C1=O (centres unmarked) [Compound 401] | 0 | – | – | 98 | – | – | 0 | 0 | 0 | 0 | 30 | 10 | 60 | – | – | – | – | – | – |
| Cc1cc(C)c(N2Cc3cccc(Br)c3C2=O)cc1NS(=O)(=O)Cl [Compound 415] | – | – | – | 85 | – | – | 80 | – | – | 10 | 30 | 0 | 50 | – | – | – | – | 80 | 90 |
| Cc1c(NS(=O)(=O)C(F)(F)F)cc(C2=NOC3(CCCC3)C2)c(C)c1C [Compound 380] | 90 | – | – | 98 | – | – | 80 | 100 | 20 | 0 | 20 | 0 | 50 | – | – | – | – | – | – |
| Cc1cc(C)c(N(S(=O)(=O)C(F)(F)F)S(=O)(=O)C(F)(F)F)cc1N1CCC2(CCC(C(F)(F)F)CC2)C1=O (centres unmarked) [Compound 399] | 40 | – | – | 0 | – | – | 10 | 90 | 20 | 10 | 40 | 0 | 10 | – | – | – | – | – | – |
| C#CCN(C)C(=O)c1cc(N(COC(=O)C(C)(C)C)S(=O)(=O)C(F)(F)F)c(C)c(C)c1C [Compound 371] | 0 | – | 0 | 95 | 60 | 90 | 10 | 100 | 0 | 0 | – | – | – | – | – | – | – | – | – |
| CCC1CC(c2cc(N(COC(=O)C(C)(C)C)S(=O)(=O)C(F)(F)F)c(C)cc2C)=NO1 (centres unmarked) [Compound 376] | 10 | – | 0 | 95 | 0 | 0 | 0 | 30 | 0 | 0 | – | – | – | – | – | – | – | – | – |
